{
  "source": "patent US9078446B2",
  "about": "“Use of N-(tetrazol-4-yl)- or N-(triazol-3-yl)arylcarboxamides or their salts for controlling unwanted plants in areas of transgenic crop plants being tolerant to HPPD inhibitor herbicides” (BAYER INTELLECTUAL PROPERTY GMBH, priority 2011, dated 2015)",
  "assay_type_in_all_cases": "in vivo",
  "key": {"[1]": {"test_system": "non-transformed tobacco plants (Wt)", "experiment": "Symptoms due to herbicide application on tobacco plants (damage classes 0-3)", "details": "25 g Al/ha, one week after application", "from_the_text": "(§1) Seeds harvested from TO transformants will be put on standard soil for germination. Three weeks later plantlets (T1) will be transferred to single pots and grown under standard cultivation conditions (PCT/EP2010/070575, published as WO 2011/076889). Two weeks later, plants were sprayed with several N-(tetrazol-4-yl)- or N-(triazol-3-yl)arylcarboxamides as defined above.\n(§2) Tables F1 to F5: Evaluation of the Symptoms Observed Due to the Application of the Herbicides on Transgenic Tobacco Plants, Expressing the Mutant Pseudomonas fluorescens HPPD G336W, the Avena HPPD (AvHPPD), the HPPD from Kordia algicida FMP27 or the HPPD from Blepharisma japonicum (FMP37), Compared to Non-Tranformed Tobacco Plants (“Wt”).\n(§3) The herbicides (with “g Al/ha” meaning “g active ingredient/ha”) were applied on 8 to 10 plants originated from 1 to 3 independent transgenic events per transgene.\n(§4) The symptoms were evaluated and classified as following: • 3=Very strong damage • 2=Strong damage • 1=Light and transient damage • 0=No damage"}, "[2]": {"test_system": "transgenic tobacco plants expressing tolerant HPPD enzymes", "experiment": "Tolerance of tobacco plants expressing tolerant HPPD enzymes (all transgenes)", "from_the_text": "(§5) Genes coding for the selected HPPD were obtained from a member of the group of organisms consisting of Avena sativa, Pseudomonas fluorescens mutant G336W, Blepharisma japonicum and Kordia algicida and cloned into the binary vector pBin19 allowing the integration of DNA into the tobacco genome, under the control of the CaMV35S promoter. For the cloning procedures, see A2 above for Avena sativa, see B2 above for Pseudomonas fluorescens, mutant G336W, see PCT/EP2010/070567 (published as WO 2011/076882, Example 5; for Blepharisma japonicum (FMP37) and see PCT/EP2010/070575, Example 5 for Kordia algicida (FMP27). Between the sequence corresponding to the promoter and the sequence coding for the HPPD a DNA sequence coding for a transit peptide to the chloroplast was inserted, in order to add at the N-terminal extremity of the protein a target signal to allow the localization of the HPPD protein into the plant chloroplast.\nas §1, §2, §3, §4"}, "[3]": {"test_system": "cotton plants expressing FMP 27 and FMP 37", "experiment": "Tolerance to HPPD inhibitors of cotton plants expressing tolerant HPPD enzymes", "details": "T1 cotton plants; one week after application", "from_the_text": "(§6) Genes coding for the selected HPPD were obtained from a member of the group of organisms consisting of Blepharisma japonicum and Kordia algicida and cloned into an appropriate binary vector allowing the integration of DNA into the cotton genome, under the control of the CaMV35S promoter. For the respective cloning procedures, see WO2011076882 (PCT/EP2010/070567), Example 11; for Blepharisma japonicum (FMP37) and WO2011076889 (PCT/EP2010/070575), Example 11 for Kordia algicida (FMP27).\nBetween the sequence corresponding to the promoter and the sequence coding for the HPPD a DNA sequence coding for a transit peptide to the chloroplast was inserted, in order to add at the N-terminal extremity of the protein a target signal to allow the localization of the HPPD protein into the plant chloroplast. Cotton transformation was achieved as described in Example 12 of WO2011076882 (PCT/EP2010/070567) for Blepharisma japonicum (FMP37) and WO2011076889 (PCT/EP2010/070575) for Kordia algicida (FMP27). Seeds from T0 events showing tolerance to tembotrione were harvested.\nT1 Cotton seeds were transferred to single pots and grown under standard cultivation conditions, see WO2011076882 (PCT/EP2010/070567) for Blepharisma japonicum (FMP37) and WO2011076889 (PCT/EP2010/070575) for Kordia algicida (FMP27).\nAt least 4 weeks later, plants will be sprayed with several N-(tetrazol-4-yl)- or N-(triazol-3-yl)arylcarboxamides as defined above."}, "[4]": {"test_system": "soybean plants expressing Pseudomonas fluorescens G336W mutant, FMP 27 and FMP 37", "experiment": "Tolerance to HPPD inhibitors of soybean plants expressing tolerant HPPD enzymes", "details": "T1 soybean plants; one week after application", "from_the_text": "as §6, with “the soybean” for “the cotton”, “Example 9;” for “Example 11;”, “Example 9” for “Example 11”\nBetween the sequence corresponding to the promoter and the sequence coding for the HPPD a DNA sequence coding for a transit peptide to the chloroplast was inserted, in order to add at the N-terminal extremity of the protein a target signal to allow the localization of the HPPD protein into the plant chloroplast. By using the vectors “pFCO112” (Blepharisma japonicum, WO2011076882), pFCO116 (Korida algicida, WO2011076889), and pFCO117” (see Example B2, above), soybean transformation was achieved as described in Example 10 of WO2011076882 (PCT/EP2010/070567) for Blepharisma japonicum (FMP37) and WO2011076889 (PCT/EP2010/070575) for Kordia algicida (FMP27). Seeds from TO events showing tolerance to tembotrione were harvested.\nT1 Soybean seeds were transferred to single pots and grown under standard cultivation conditions, see WO2011076882.\nTwo weeks later, plants will be sprayed with several N-(tetrazol-4-yl)- or N-(triazol-3-yl)arylcarboxamides as defined above."}, "[5]": {"test_system": "transgenic tobacco plants expressing HPPD from Blepharisma japonicum (FMP37)", "experiment": "Symptoms due to herbicide application on transgenic tobacco plants (damage classes 0-3)", "details": "25 g Al/ha, one week after application", "from_the_text": "as §5, §1, §2, §3, §4"}, "[6]": {"test_system": "transgenic tobacco plants expressing mutant Pseudomonas fluorescens HPPD G336W (PfHPPD-G336W)", "experiment": "Symptoms due to herbicide application on transgenic tobacco plants (damage classes 0-3)", "details": "PfHPPD-G336W line 646; 25 g Al/ha; one week after application", "from_the_text": "as §5, §1, §2, §3, §4"}, "[7]": {"test_system": "transgenic tobacco plants expressing HPPD from Kordia algicida FMP27", "experiment": "Symptoms due to herbicide application on transgenic tobacco plants (damage classes 0-3)", "details": "25 g Al/ha, one week after application", "from_the_text": "as §5, §1, §2, §3, §4"}, "[8]": {"test_system": "transgenic tobacco plants expressing Avena HPPD (AvHPPD)", "experiment": "Symptoms due to herbicide application on transgenic tobacco plants (damage classes 0-3)", "details": "25 g Al/ha, one week after application", "from_the_text": "as §5, §1, §2, §3, §4"}},
  "data": [
    {"smiles": "CCn1nnnc1NC(=O)c1ccc(C(F)(F)F)c(S(C)(=O)=O)c1C", "note": "[Compound 5-148]", "values": [
      {"measurement": "number of plants with Damage 0 (No damage)", "setting": "[1]", "value": 0},
      {"measurement": "number of plants with Damage 1 (Light and transient damage)", "setting": "[1]", "value": 0},
      {"measurement": "number of plants with Damage 2 (Strong damage)", "setting": "[1]", "value": 0},
      {"measurement": "number of plants with Damage 3 (Very strong damage)", "setting": "[1]", "value": 10},
      {"measurement": "tolerance of the transgenic tobacco plants (symptoms due to application of the herbicide)", "setting": "[2]; T1 plants sprayed, evaluated one week after application", "value": "good tolerance"},
      {"measurement": "sensitivity of transgenic tobacco plants compared to wild type (wt) plants", "setting": "[2]; all tested independent lines, agronomically relevant dose", "value": "less sensitive"},
      {"measurement": "tolerance of transgenic plants compared to the wild-type cotton plants", "setting": "[3]", "value": "superior tolerance"},
      {"measurement": "tolerance of transgenic plants compared to the wild-type soybean plants", "setting": "[4]", "value": "superior tolerance"},
      {"measurement": "number of plants with Damage 0 (No damage)", "setting": "[5]; FMP37 line 749", "value": 2},
      {"measurement": "number of plants with Damage 1 (Light and transient damage)", "setting": "[5]; FMP37 line 749", "value": 3},
      {"measurement": "number of plants with Damage 2 (Strong damage)", "setting": "[5]; FMP37 line 749", "value": 2},
      {"measurement": "number of plants with Damage 3 (Very strong damage)", "setting": "[5]; FMP37 line 749", "value": 3},
      {"measurement": "number of plants with Damage 0 (No damage)", "setting": "[5]; FMP37 line 754", "value": 2},
      {"measurement": "number of plants with Damage 1 (Light and transient damage)", "setting": "[5]; FMP37 line 754", "value": 1},
      {"measurement": "number of plants with Damage 2 (Strong damage)", "setting": "[5]; FMP37 line 754", "value": 5},
      {"measurement": "number of plants with Damage 3 (Very strong damage)", "setting": "[5]; FMP37 line 754", "value": 2},
      {"measurement": "number of plants with Damage 0 (No damage)", "setting": "[5]; FMP37 line 795", "value": 1},
      {"measurement": "number of plants with Damage 1 (Light and transient damage)", "setting": "[5]; FMP37 line 795", "value": 0},
      {"measurement": "number of plants with Damage 2 (Strong damage)", "setting": "[5]; FMP37 line 795", "value": 6},
      {"measurement": "number of plants with Damage 3 (Very strong damage)", "setting": "[5]; FMP37 line 795", "value": 3},
      {"measurement": "number of plants with Damage 0 (No damage)", "setting": "[6]", "value": 0},
      {"measurement": "number of plants with Damage 1 (Light and transient damage)", "setting": "[6]", "value": 3},
      {"measurement": "number of plants with Damage 2 (Strong damage)", "setting": "[6]", "value": 2},
      {"measurement": "number of plants with Damage 3 (Very strong damage)", "setting": "[6]", "value": 4},
      {"measurement": "number of plants with Damage 0 (No damage)", "setting": "[7]; FMP27 line 733", "value": 3},
      {"measurement": "number of plants with Damage 1 (Light and transient damage)", "setting": "[7]; FMP27 line 733", "value": 1},
      {"measurement": "number of plants with Damage 2 (Strong damage)", "setting": "[7]; FMP27 line 733", "value": 4},
      {"measurement": "number of plants with Damage 3 (Very strong damage)", "setting": "[7]; FMP27 line 733", "value": 2},
      {"measurement": "number of plants with Damage 0 (No damage)", "setting": "[7]; FMP27 line 734", "value": 4},
      {"measurement": "number of plants with Damage 1 (Light and transient damage)", "setting": "[7]; FMP27 line 734", "value": 2},
      {"measurement": "number of plants with Damage 2 (Strong damage)", "setting": "[7]; FMP27 line 734", "value": 0},
      {"measurement": "number of plants with Damage 3 (Very strong damage)", "setting": "[7]; FMP27 line 734", "value": 4},
      {"measurement": "number of plants with Damage 0 (No damage)", "setting": "[7]; FMP27 line 735", "value": 0},
      {"measurement": "number of plants with Damage 1 (Light and transient damage)", "setting": "[7]; FMP27 line 735", "value": 4},
      {"measurement": "number of plants with Damage 2 (Strong damage)", "setting": "[7]; FMP27 line 735", "value": 4},
      {"measurement": "number of plants with Damage 3 (Very strong damage)", "setting": "[7]; FMP27 line 735", "value": 2},
      {"measurement": "number of plants with Damage 0 (No damage)", "setting": "[8]; AvHPPD line 656", "value": 2},
      {"measurement": "number of plants with Damage 1 (Light and transient damage)", "setting": "[8]; AvHPPD line 656", "value": 1},
      {"measurement": "number of plants with Damage 2 (Strong damage)", "setting": "[8]; AvHPPD line 656", "value": 3},
      {"measurement": "number of plants with Damage 3 (Very strong damage)", "setting": "[8]; AvHPPD line 656", "value": 4},
      {"measurement": "number of plants with Damage 0 (No damage)", "setting": "[8]; AvHPPD line 659", "value": 3},
      {"measurement": "number of plants with Damage 1 (Light and transient damage)", "setting": "[8]; AvHPPD line 659", "value": 1},
      {"measurement": "number of plants with Damage 2 (Strong damage)", "setting": "[8]; AvHPPD line 659", "value": 0},
      {"measurement": "number of plants with Damage 3 (Very strong damage)", "setting": "[8]; AvHPPD line 659", "value": 6},
      {"measurement": "number of plants with Damage 0 (No damage)", "setting": "[8]; AvHPPD line 699", "value": 1},
      {"measurement": "number of plants with Damage 1 (Light and transient damage)", "setting": "[8]; AvHPPD line 699", "value": 1},
      {"measurement": "number of plants with Damage 2 (Strong damage)", "setting": "[8]; AvHPPD line 699", "value": 1},
      {"measurement": "number of plants with Damage 3 (Very strong damage)", "setting": "[8]; AvHPPD line 699", "value": 7}
    ]}
  ]
}
